Values of other authors as cited in patent publication US20240024227A1, “CANNABIS PLANT DERIVED EXTRACELLULAR VESICLES AND THERAPEUTIC METHODS USING THE SAME” (UNIVERSITY OF FLORIDA RESEARCH FOUNDATION, INCORPORATED, priority 2020, published 2024).
Like-named read-outs stand apart in the source and are kept apart here.

Details: IP approximately 300 μg

| SMILES | THCa levels in the brain | CBDa brain Cmax (ethanol Tween-80 solution) [ng/mg] | CBDa brain Cmax (vegetable oil) [ng/mg] | time of CBDa brain Cmax (vegetable oil or Tween-80) [min] |
| --- | --- | --- | --- | --- |
| CCCCCc1cc2c(c(O)c1C(=O)O)[C@@H]1C=C(C)CC[C@H]1C(C)(C)O2 [THCa, tetrahydrocannabinolic acid] | below detection | – | – | – |
| C=C(C)[C@@H]1CCC(C)=C[C@H]1c1c(O)cc(CCCCC)c(C(=O)O)c1O [CBDa, Cannabidiolic acid] | – | 13.2 | 2.0 | 30 |
